Results on two compounds are retold here after US4735954A, “Anti-rheumatic agent” (priority 1985, dated 1988).

By LD50 is commonly meant the dose at which mortality reaches 50%. A low value points to greater toxicity.

The test system of data set [1] is Adjuvant-induced Secondary Inflammation. As to the kind of experiment: adjuvant-induced arthritis in rats, secondary inflammation. It counts as in vivo, female Wistar rats. On the procedure:
(§1) Eight female Wistar rats in each group, weighing 140-200 g were used. The arthritis was induced by intradermal injection of Mycobacterium butyricum suspended in liquid paraffin (0.6 mg/0.1 ml) as the adjuvant to tail. The change in volume of both legs due to the formation of edema was measured 12, 16 and 19 days after the adjuvant challenge. In addition, a severity of the secondary inflammation observed in auricles, paws, legs and tail was graded into the degrees of 0-4.

Data set [2] relates to Adjuvant-induced Edema in Left Legs. Description: adjuvant-induced arthritis in rats, edema in left legs. It counts as in vivo, female Wistar rats. On the procedure:
as §1

The test system of data set [3] is Adjuvant-induced Edema in Right Legs. As to the kind of experiment: adjuvant-induced arthritis in rats, edema in right legs. In kind it is in vivo, female Wistar rats. On the procedure: as §1
The next data set in a line: acute toxicity in rats. The following applies: rat, in vivo.
For data set [4] the following is noted: disclosed in earlier patents; cited from earlier work.
The test system of data set [5] is adjuvant-induced experimental arthritis. As to the kind of experiment: adjuvant-induced experimental arthritis in rats (overall). It counts as in vivo. Conditions: oral, 20 mg/kg once or 10 mg/kg twice every day. On the procedure:
as §1

Data set [6] concerns Arthus reaction (type III allergic reaction). The following applies: own earlier publication; cited from earlier work.
The subject of another data set is rats and mice. Description: toxicological studies (acute, subacute, chronic). Conditions: acute (several routes), subacute (oral, one month), chronic (oral, six months). In kind it is in vivo.
The conditions of data set [7]: disclosed in earlier patents; cited from earlier work. The source holds these as a separate data set.
A short description of another data set: acute toxicity in mice. Conditions: mouse, in vivo.
The subject of data set [8] is type I (immediate type) allergic reaction. Conditions: own earlier publications; cited from earlier work.
Where [9] appears, read: 10 × 2 mg/kg/day p.o., 12th day.
The mark [10] stands for this setting: 10 × 2 mg/kg/day p.o., 16th day.
Where [11] appears, read: 10 × 2 mg/kg/day p.o., 19th day.

Consider `C[C@]12CCC(=O)C=C1CC[C@@H]1[C@@H]2[C@@H](O)C[C@@]2(C)[C@H]1CC[C@]2(O)C(=O)CO` [Hydrocortisone, reference compound], for which the “Inflammation Score” value in data set [1] (5 mg/kg/day p.o., 16th day, control 11.8) stood at 8.1; in [1] (5 mg/kg/day p.o., 19th day, control 17.0), 9.3. Besides, the “Inhibition of edema in left legs” value in data set [2] (5 mg/kg/day p.o., 12th day) is 57.0%; in [2] (5 mg/kg/day p.o., 16th day) it was 53.1%; in [2] (5 mg/kg/day p.o., 19th day), 54.7%. The “Inhibition of edema in right legs” value in data set [3] (5 mg/kg/day p.o., 12th day) is 90.9%; in data set [3] (5 mg/kg/day p.o., 16th day), 60.1%; in data set [3] (5 mg/kg/day p.o., 19th day), 57.8%.
Take `CC(C)C(=O)c1c(C(C)C)nn2ccccc12` [KC-404, 3-isobutyryl-2-isopropylpyrazalo[1,5-a]pyridine]: the “Inflammation Score” value is 6.6 in [1] (20 mg/kg/day p.o., 16th day, control 11.8); 10.3 in data set [1] (20 mg/kg/day p.o., 19th day, control 17.0); 9.0 in [1] (10 × 2 mg/kg/day p.o., 16th day, control 11.8); 11.4 in data set [1] (10 × 2 mg/kg/day p.o., 19th day, control 17.0). The LD50 in the data set “acute toxicity in rats” (ip, Female) turned out to be 419 mg/kg; in the data set “acute toxicity in rats” (ip, Male), 500 mg/kg; in “acute toxicity in rats” (iv, Female), 42.5 mg/kg; in the data set “acute toxicity in rats” (iv, Male) it was 43.2 mg/kg; in “acute toxicity in rats” (po, Female), 1400 mg/kg; in the data set “acute toxicity in rats” (sc, Female), 1370 mg/kg. In addition, the LD50 was determined as 1450 mg/kg in “acute toxicity in rats” (sc, Male); 500 mg/kg in “acute toxicity in mice” (ip, Female); 460 mg/kg in “acute toxicity in mice” (ip, Male); 146 mg/kg in “acute toxicity in mice” (iv, Female); 160 mg/kg in the data set “acute toxicity in mice” (iv, Male); 1860 mg/kg in “acute toxicity in mice” (po, Female). In addition, the median lethal dose (LD50) in “acute toxicity in mice” (po, Male) was determined as 1880 mg/kg; in the data set “acute toxicity in mice” (sc, Female), 3100 mg/kg; in the data set “acute toxicity in mice” (sc, Male), 3000 mg/kg. For the same compound, in data set [4], the bronchodilating effect result is recorded as “bronchodilating”. In addition, the “inhibition of the production of adjuvant-induced experimental arthritis” value in data set [5] is listed as “markedly inhibits”. Further, the “effect on the Arthus reaction (type III allergic reaction)” value in data set [6] is given as “inhibits”. Moreover, the toxicity entry with rats and mice was “low in toxicity”. Moreover, in data set [7], the cerebral vasodilating effect entry is “Cerebral vasodilating”. The “Inhibition of edema in left legs” value in data set [2] (20 mg/kg/day p.o., 12th day) is 71.7%; in data set [2] (20 mg/kg/day p.o., 16th day), 79.9%; in [2] (20 mg/kg/day p.o., 19th day), 61.1%; in data set [2] (setting [9]) it was 50.2%; in [2] (setting [10]) it was 28.6%; in data set [2] (setting [11]), 41.9%. In addition, in data set [8], the “effect on type I allergic reaction” value is recorded as “inhibitory effect”. The “Inhibition of edema in right legs” value in data set [3] (20 mg/kg/day p.o., 12th day) worked out at 44.4%; in data set [3] (20 mg/kg/day p.o., 16th day), 80.8%; in data set [3] (20 mg/kg/day p.o., 19th day), 53.1%; in [3] (setting [9]) it was 19.8%; in data set [3] (setting [10]), 56.6%; in data set [3] (setting [11]), 39.9%.
